How the values were obtained:
RSV = RSV plaque reduction assay on Vero cells (Example 1); assay type: cell-based, RSV/A2
Experimental: Dilutions of Fkn (R&D systems), SDF-1 α (R&D systems), G glycoprotein, heparin (Sigma), G glycoprotein peptides and anti-CX3CR1 antibody were made in serum-free Dulbecco's Modified Eagle's Media (DMEM; GIBCO) containing 1% BSA (Sigma) and preincubated with the Vero cells for 1 h at 37° C. 50 μg of anti-CX3CR1 antibody or heat-inactivated (56° C., 30 min) normal rabbit sera (control) were used in all experiments. […] Dilutions of RSV were made in serum-free DMEM (GIBCO) and added to pretreated Vero cells for 2 h at 37° C. Following virus infection, DMEM (GIBCO) containing 10% FBS (Hyclone, Logan, Utah) was added to the wells. Plaques were enumerated using immunostaining for F and G glycoproteins using biotinylated monoclonal antibodies 131-2A (anti-F glycoprotein) and 130-2G (anti-G glycoprotein) as described^45.
RSV plaque reduction following treatment with G glycoprotein, Fkn, G glycoprotein peptides, anti-CX3CR1 antibody, SDF-1-α and/or heparin as described in Methods. Percent inhibition was determined from the mean plaque forming units (pfu) of treated Vero cells over saline-treated Vero cells using a dilution of RSV that would produce 40-80 pfu. p-values were determined using unpaired two-tailed analysis where p<0.05 is significant. The concentration of G glycoprotein was estimated using a molecular weight of 90 kD.

[1] = test system: bronchoalveolar leukocytes (BAL); test: BAL cell infiltration and cell types in RSV-infected mice following in vivo peptide treatment; set-up: species or system BALB/c mice; conditions: in words
Source text: Total pulmonary leukocyte trafficking following treatment of mice with peptides containing a CX3C motif (RT33 and EYp1) (A) or peptides without a CX3C motif (RT34, Δ+1, Δ−1)(B).
(§1) Flow cytometry results following treatment (d−1) of mice with PBS, RT33, RT34, Δ+1, Δ−1 and EYp1 peptides (100 μm). BAL cells were stained with antibodies against B220^+ (A, D, G), CD3^+ (B, E, H) and CD11b^+ (C, F, I) cells. Data is expressed as the total BAL cells/lung±SEM at days 3, 5, 7 and 14 post-infection. A representative experiment from 3 independent experiments is shown.
as §1, with “NK (DX5^+)” for “B220^+”, “(A, C, E) and PMN (RB6-8C5^+) cells (B,” for “(A,”, “F).” for “G), CD3^+ (B, E, H) and CD11b^+ (C, F, I) cells.”
(§2) On day −1, prior to RSV infection, mice were i.p. treated (0.1 ml/mouse) with 100 μM of G glycoprotein peptides RT33 (CWAIC) (SEQ ID NO: 12), RT34 (lacks the CX3C motif) or peptides with changes in the CX3C motif (Δ+1, Δ−1, EYp1). Control mice were treated with PBS containing a similar dilution of DMSO used to solubilize the peptides.
Mice were anesthetized with Avertin and exsanguinated by severing the right caudal artery. Bronchoalveolar leukocyte (BAL) cells were harvested by lung lavage with PBS containing 1% bovine serum albumin (BSA, Sigma). The procedure used for extracellular staining of BAL cells was modified for microculture staining as described (55,57). Briefly, BAL cells were washed in Dulbecco's PBS (GIBCO) containing 1% bovine serum albumin (Sigma), blocked with 10% normal mouse sera diluted in PBS containing 1% bovine serum albumin, and then stained (4° C., 30 min) with an appropriate dilution of FITC-conjugated or PE-conjugated anti-CD3ε (145-2C11), anti-CD45R/B220 (RA3-6B2), anti-CD8 (Ly-2), anti-neutrophil (PMN) (RB6-8C5), anti-CD11b (M1/70) and isotype antibody controls (all from Pharmingen, San Diego, Calif.).

CD3+ BAL cells = test: Intracellular cytokine expression by CD3+ T cells following in vivo peptide treatment; set-up: species or system BALB/c mice
Experimental: as §2
Intracellular cytokine staining was modified for microculture staining as described (55, 57). Briefly, BAL cells were incubated in PBS containing Golgi Stop (Pharmingen) for 3 h at 37° C. to allow for accumulation of intracellular cytokines. The cells were washed in PBS containing 1% bovine serum albumin, blocked with 10% normal mouse sera diluted in PBS containing 1% bovine serum albumin, and stained (4° C., 30 min) with an appropriate dilution of anti-CD3 antibody, fixed and permeabilized in Cytofix/Cytoperm (Pharmingen). The cells were washed in Cytofix/Cytoperm buffer and stained (4° C., 30 min) with appropriate dilutions of anti-IL-2 (JES6-5H4), anti-IL-4 (BVD4-1D11), anti-IL-5 (TRFK5), IL-10 (JES3-16E3), anti-IFNγ (XMG1.2), or anti-TNFα (MP6-XT22) antibodies (Pharmingen) diluted in Cytofix/Cytoperm. Extra- and intracellular staining was analyzed by flow cytometry using a FACScan and Cell Quest software (Becton Dickinson, San Diego, Calif.). Total cytokine expression by CD3+ T cells was determined from the percent cytokine expression of CD3+ T cells and total number of cells recovered. The total number of CD3+ BAL cells expressing a particular cytokine was determined by multiplying the total number of BAL cells by the percent CD3+ cells expressing that particular cytokine.

[2] = test system: G glycoprotein binding to 293-CX3CR1 cells; set-up: species or system human; conditions: chemokine 10 μM
Experimental: All binding studies were done on ice and either G glycoprotein or human Fkn (R&D Diagnostics, Minneapolis, Minn.) were diluted between 1 nM-100 nM in PBS (GIBCO) containing 1% bovine serum albumin (Sigma) and incubated with the 293-CX3CR1 cells or 293 control cells for 30 min at 4° C. […] Without washing, 100 pM of either Fkn or G glycoprotein was added and incubated for 30 min at 4° C. The cells were washed, blocked with FcγRIII blocking antibody (HB197) for 30 min on ice, washed and stained as appropriate with either an anti-G glycoprotein monoclonal antibody cocktail (132-5B, 132-5G, 130-2G, 232-IF) or a biotinylated anti-G glycoprotein monoclonal antibody cocktail (130-2G, 131-2G) or anti-Fkn monoclonal antibody (51637.11; R&D Diagnostics). Concentrations of 1 μg of anti-G glycoprotein monoclonal antibody (131-2G)^34, rabbit anti-CX3CR1 sera^33, and anti-CX3CR1 monoclonal antibody containing 10 μg/ml heparin were used in all experiments. […] Staining was detected with absorbed FITC-goat anti-mouse (H & L chain) monoclonal antibody (PharMingen, San Diego, Calif.) or streptavidin-PE (PharMingen) using flow cytometry (FACScan, Becton-Dickinson, Mountain View, Calif.). A 76 amino acid ^125I-Fkn polypeptide comprising the […] (NEN, Boston, Mass.) was used in radioligand studies^33. As a control, the void volume following purified G glycoprotein passaged over an anti-G glycoprotein antibody (130-2G) affinity column was examined by flow cytometry for binding to either 293 or 293-CX3CR1 cells.
For peptide inhibition studies, a series of G glycoprotein peptides were identified in the amino acid sequence of the A2 strain of RSV (GENBANK, attachment protein locus 1912305, Table 4). The peptides were synthesized using a simultaneous, multiple solid-phase peptide synthesis method on a peptide synthesizer (Perkin-Elmer Applied Biosystems, Berkeley, Calif.), and tested for homogeneity by reverse-phase liquid chromatography and capillary electrophoresis (www.biotech.cdc.gov/protein/methods). Inhibition assays were performed as described for the binding studies above.
To determine if G glycoprotein bound 293-CX3CR1 cells via CX3CR1, the ability of four reagents (anti-CX3CR1 rabbit antiserum, anti-CX3CR1 monoclonal antibody (2A9-1), Fkn and a 76 amino acid 125-I-Fkn polypeptide containing the CX3C domain) that bind to CX3CR1 to block G glycoprotein binding to 293-CX3CR1 cells was examined. In addition, to determine if binding of G glycoprotein to 293-CX3CR1 cells was dependent upon the CX3C motif, G glycoprotein peptides with a single residue insertion (Δ+1) or deletion (Δ−1) in the CX3C motif and also peptides that lacked or included the CX3C motif (Table 4) were generated. This panel of peptides was analyzed for their ability to block G glycoprotein or Fkn binding to 293-CX3CR1 cells.
Inhibition of Fkn and G glycoprotein binding to 293-CX3CR1 cells by treatment with monoclonal antibodies to G glycoprotein or CX3CR1, or treatment with G glycoprotein, Fkn, or G glycoprotein peptides in the presence or absence of heparin as described in Methods. […] The concentration of G glycoprotein was estimated using a molecular weight of 90 kD.

[3] = biological target: T1, Fkn binding to 293-CX3CR1 cells (Homo sapiens, UniProt P49238); conditions: chemokine 10 μM
T1 construct: host or cells: HEK 293 cells stably transfected with CX3CR1
T1 sequence (P49238 whole entry): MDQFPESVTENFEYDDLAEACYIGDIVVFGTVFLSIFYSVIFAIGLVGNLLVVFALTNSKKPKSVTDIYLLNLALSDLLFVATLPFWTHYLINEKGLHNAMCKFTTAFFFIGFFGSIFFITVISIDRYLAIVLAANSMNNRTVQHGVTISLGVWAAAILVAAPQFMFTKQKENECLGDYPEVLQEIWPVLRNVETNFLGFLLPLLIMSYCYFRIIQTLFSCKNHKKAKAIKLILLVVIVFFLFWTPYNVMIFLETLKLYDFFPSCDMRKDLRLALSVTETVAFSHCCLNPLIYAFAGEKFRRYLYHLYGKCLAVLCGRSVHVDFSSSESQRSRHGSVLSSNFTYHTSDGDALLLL

SDF-1α [reference compound]
plaque inhibition (%) (RSV; 1 nM): 5%
plaque inhibition (%) (RSV; 10 nM): 7%
plaque inhibition (%) (RSV; 100 nM): 12%
effect on RSV plaque formation / plaque number (RSV; in words): no effect on RSV plaque formation was detected

TCAAACKRIPNKK [EYp1, 13-mer G glycoprotein peptide variant of RT33 with CAAAC motif]
total BAL numbers compared to mice treated with RT34, Δ−1 or PBS ([1]; day 3 pi): reduced BAL numbers
numbers of BAL cell types (B220+, CD3+, CD11b+, NK, PMN) ([1]; days 3, 5, 7 and 14 pi): increased numbers of CD3+ cells on days 5 and 7 pi
course of BAL numbers ([1]; from day 3 to day 14 pi): increased
Total IC cytokine Expressing CD3^+ BAL cells (×10^3) ± SEM: IFNγ (CD3+ BAL cells; day 3 pi): 32 ± 7.3 ×10^3
Total IC cytokine Expressing CD3^+ BAL cells (×10^3) ± SEM: IL-4 (CD3+ BAL cells; day 3 pi): 32 ± 7.2 ×10^3
Total IC cytokine Expressing CD3^+ BAL cells (×10^3) ± SEM: IL-5 (CD3+ BAL cells; day 3 pi): 34 ± 7.7 ×10^3
Total IC cytokine Expressing CD3^+ BAL cells (×10^3) ± SEM: IL-6 (CD3+ BAL cells; day 3 pi): 35 ± 8.0 ×10^3
Total IC cytokine Expressing CD3^+ BAL cells (×10^3) ± SEM: TNFα (CD3+ BAL cells; day 3 pi): 36 ± 8.1 ×10^3
Total IC cytokine Expressing CD3^+ BAL cells (×10^3) ± SEM: IL-2 (CD3+ BAL cells; day 3 pi, peptide 24 hours prior to RSV infection): 26 ± 6.0 ×10^3
Total IC cytokine Expressing CD3^+ BAL cells (×10^3) ± SEM: IFNγ (CD3+ BAL cells; day 5 pi): 26 ± 5.4 ×10^3
Total IC cytokine Expressing CD3^+ BAL cells (×10^3) ± SEM: IL-2 (CD3+ BAL cells; day 5 pi): 17 ± 3.6 ×10^3
Total IC cytokine Expressing CD3^+ BAL cells (×10^3) ± SEM: IL-4 (CD3+ BAL cells; day 5 pi): 28 ± 5.6 ×10^3
Total IC cytokine Expressing CD3^+ BAL cells (×10^3) ± SEM: IL-5 (CD3+ BAL cells; day 5 pi): 32 ± 6.5 ×10^3
Total IC cytokine Expressing CD3^+ BAL cells (×10^3) ± SEM: IL-6 (CD3+ BAL cells; day 5 pi): 19 ± 7.4 ×10^3
Total IC cytokine Expressing CD3^+ BAL cells (×10^3) ± SEM: TNFα (CD3+ BAL cells; day 5 pi): 41 ± 8.4 ×10^3
Total IC cytokine Expressing CD3^+ BAL cells (×10^3) ± SEM: IFNγ (CD3+ BAL cells; day 7 pi): 18 ± 2.6 ×10^3
Total IC cytokine Expressing CD3^+ BAL cells (×10^3) ± SEM: IL-2 (CD3+ BAL cells; day 7 pi): 7.8 ± 1.1 ×10^3
Total IC cytokine Expressing CD3^+ BAL cells (×10^3) ± SEM: IL-4 (CD3+ BAL cells; day 7 pi): 12 ± 1.6 ×10^3
Total IC cytokine Expressing CD3^+ BAL cells (×10^3) ± SEM: IL-5 (CD3+ BAL cells; day 7 pi): 20 ± 2.8 ×10^3
Total IC cytokine Expressing CD3^+ BAL cells (×10^3) ± SEM: IL-6 (CD3+ BAL cells; day 7 pi): 17 ± 2.4 ×10^3
Total IC cytokine Expressing CD3^+ BAL cells (×10^3) ± SEM: TNFα (CD3+ BAL cells; day 7 pi): 6.8 ± 2.8 ×10^3
Total IC cytokine Expressing CD3^+ BAL cells (×10^3) ± SEM: IFNγ (CD3+ BAL cells; day 14 pi): 5.3 ± 0.3 ×10^3
Total IC cytokine Expressing CD3^+ BAL cells (×10^3) ± SEM: IL-2 (CD3+ BAL cells; day 14 pi): 5.1 ± 0.3 ×10^3
Total IC cytokine Expressing CD3^+ BAL cells (×10^3) ± SEM: IL-4 (CD3+ BAL cells; day 14 pi): 5.4 ± 0.3 ×10^3
Total IC cytokine Expressing CD3^+ BAL cells (×10^3) ± SEM: IL-5 (CD3+ BAL cells; day 14 pi): 7.7 ± 0.5 ×10^3
Total IC cytokine Expressing CD3^+ BAL cells (×10^3) ± SEM: IL-6 (CD3+ BAL cells; day 14 pi): 5.0 ± 0.3 ×10^3
Total IC cytokine Expressing CD3^+ BAL cells (×10^3) ± SEM: TNFα (CD3+ BAL cells; day 14 pi): 6.8 ± 0.5 ×10^3

B1: KC: growth regulated oncogene-α, KC, chemokine (protein, UniProt P12850 25-96, looked up)
Growth-regulated alpha protein: APIANELRCQCLQTMAGIHLKNIQSLKVLPSGPHCTQTEVIATLKNGREACLDPEAPLVQKIVQKMLKGVPK
Range of Inhibition (%) of G glycoprotein binding [2]: 0-6%
Range of Inhibition (%) of Fkn binding [3]: 4-6%

B2: IP-10: chemokine (protein, UniProt P17515 22-98, looked up)
C-X-C motif chemokine 10: IPLARTVRCNCIHIDDGPVRMRAIGKLEIIPASLSCPRVEIIATMKKNDEQRCLNPESKTIKNLMKAFSQKRSKRAP
Range of Inhibition (%) of G glycoprotein binding [2]: 0-4%
Range of Inhibition (%) of Fkn binding [3]: 0-6%

B3: C10: macrophage inflammatory protein-related protein-1 (C10), chemokine (protein)
chain: GLIQEMEKEDRRYNPPIIHQGFQDTSSDCCFSYATQIPCKRFIYYFPTSGGCIKPGIIFISRRGTQVCADPSDRRVQRCLSTLKQGPRSGNKVIA
Range of Inhibition (%) of G glycoprotein binding [2]: 5-8%
Range of Inhibition (%) of Fkn binding [3]: 4-8%

B4: MIP-2: chemokine (protein)
chain: AVVASELRCQCLKTLPRVDFKNIQSLSVTPPGPHCAQTEVIATLKGGQKVCLDPEAPLVQKIIQKILNKGKAN
Range of Inhibition (%) of G glycoprotein binding [2]: 2-8%
Range of Inhibition (%) of Fkn binding [3]: 0-4%

Reference: patent US8173131B2, “Compositions and methods for modulating RSV infection and immunity” (PerkinElmer Health Sciences, Inc., priority 2000, dated 2012)
